The values that follow come from patent US20230240988A1, “FLUID GEL COMPOSITIONS” (The University of Birmingham, priority 2020, published 2023).

A short description of series [1]: Release assay of active agents from PEG-DA fluid gel (trans-well, UV/Vis). It is filed as physicochemical. To be noted: 3% v/v PEG-DA fluid gel (500 rpm), PBS 37° C., 5 hrs. The method, then: • Active amounts: […] • Standard concentrations of active in PBS were prepared. • Standards were pipetted into a quartz cuvette (1 mm pathlength). • […] spectroscopy was used to measure absorbance between 200 and 700 nm wavelength. • Curves were plotted and used to determine standard curves which were used to determine concentrations. • 0.5 ml PBS was added to the well of a 24 well plate. • The PBS was incubated at 37° C. to equilibrate. 0.1 ml of the fluid gel containing active was placed in a trans-well insert. • The trans-well insert was placed into a well containing PBS. • After a given time period the trans-well insert was removed and placed in a fresh well of PBS. • The release media was then removed and analysed using […] spectroscopy. Concentrations were derived from the standard curves and cumulative release plotted as a function of time.

Series [2] deals with primary ovine chondrocytes. Nature of the series: PrestoBlue metabolic activity assay. It is filed as cell-based. As for the experimental part: All cell work was undertaken on primary ovine chondrocytes. Cells were first expanded, then seeded into wells 24 hrs prior to the application of the fluid gels. Once treatments were added, the cells were cultured for a further 3 days before testing for both metabolic activity and cell viability. In the presence of functionalised particles, suspension wells were used to promote adhesion to the gelled particles, away from the plastic. Metabolic activity assay was undertaken using a PrestoBlue™ assay kit (Invitrogen). In brief, cells were washed with Dulbecco's PBS, and 1 mL of PrestoBlue™ supplemented medium (10%) was added to each well and incubated for 4 hrs. 50 μL of supernatant from each well was transferred to one well of a 96 well plate and fluorescence was measured using a Tecan Spark (Tecan Group Ltd, UK) plate reader with excitation/emission wavelengths set at 550/620 nm.

Where two headings read alike, the source gives them in different places.

On to `CC(C)Cc1ccc(C(C)C(=O)O)cc1` (stereo not shown) [Ibuprofen, ibuprofen], for which the “release of active agent from fluid gel” value in series [1] is “able to release”.
Regarding `CC(C)(O)C(=O)c1ccc(OCCO)cc1` [Irgacure-2959, 1-[4-(2-Hydroxyethoxy)-phenyl]-2-hydroxy-2-methyl-1-propane-1-one], in series [2], the “cell metabolic activity, individual formulation components” value is listed as “slight reduction in cell metabolism”.
`CC(C)(O)C(=O)c1ccccc1` [Omnirad-1173, 2-hydroxy-2-methyl-1-phenylpropanone]: in series [2] (3 days culture, PEG-DA not cured, 3.5% & 5%), the “cell metabolic activity, individual formulation components” value was “slight reduction in cell metabolism, although not statistical”.
As to Dextran, in series [1], the “release of active agent from fluid gel” value is listed as “able to release”.
